Our source for the Km values is paper PMC9824425, “Ammonium Uptake, Mediated by Ammonium Transporters, Mitigates Manganese Toxicity in Duckweed, Spirodela polyrhiza” (Plants, 2023).

Each structure is given as a SMILES string.

For one test, the system named is SpAMT1;3. To be noted: NH4Cl 10-10,000 µM; pH 5.5 (MES/Tris); choline chloride 110 mM; membrane potential for the fit not told.
Another test relates to SpAMT1;1. To be noted: NH4Cl 10-10,000 µM; pH 5.5 (MES/Tris); choline chloride 110 mM; membrane potential for the fit not told.

Consider `N` [ammonium], for which the Km (usually the concentration of substrate that gives half-maximal velocity) in the test on SpAMT1;3 came to 5400 µM; in the test on SpAMT1;1, 116 µM.
